Laboratory results: US11331314B2, “Amine substituted triazole derivatives and uses thereof” (Bayer Pharma Aktiengesellschaft, priority 2017, dated 2022)

Assays:
[1] = target: T1, human V2 receptor (Homo sapiens, UniProt P30518); assay: Cellular in vitro assay for determining vasopressin receptor activity, V2 receptor cell line (CRE-luciferase); type: cell-based; conditions: CHO cell line transfected with the human V2 receptor; agonist [Arg8]-vasopressin at EC50 concentration; read-out: IC50 hV2
T1 construct: expressed in transfected cells; host or cells: CHO K1 (ATCC) expressing firefly luciferase under a CRE-responsive promoter

[2] = target: human V1a receptor (Homo sapiens, UniProt P37288); assay: Cellular in vitro assay for determining vasopressin receptor activity, V1a receptor cell line (photoprotein luminescence); type: cell-based; conditions: for IC50: CHO cell line transfected with the human V1a receptor, agonist [Arg8]-vasopressin at EC50 concentration, read-out: IC50 hV1a; for ratio IC50 hV2/hV1a: selectivity ratio of the cellular IC50 values
Procedure, shortened: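 CHO K1 cells stably expressing human V1a receptor with aequorin photoprotein, loaded overnight with coelenterazine. Compounds preincubated 10 min at various concentrations, then challenged with [Arg^8]-vasopressin at EC50 concentration. Calcium-driven luminescence read immediately; IC50 values derived.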

T1 sequence (P30518 whole entry): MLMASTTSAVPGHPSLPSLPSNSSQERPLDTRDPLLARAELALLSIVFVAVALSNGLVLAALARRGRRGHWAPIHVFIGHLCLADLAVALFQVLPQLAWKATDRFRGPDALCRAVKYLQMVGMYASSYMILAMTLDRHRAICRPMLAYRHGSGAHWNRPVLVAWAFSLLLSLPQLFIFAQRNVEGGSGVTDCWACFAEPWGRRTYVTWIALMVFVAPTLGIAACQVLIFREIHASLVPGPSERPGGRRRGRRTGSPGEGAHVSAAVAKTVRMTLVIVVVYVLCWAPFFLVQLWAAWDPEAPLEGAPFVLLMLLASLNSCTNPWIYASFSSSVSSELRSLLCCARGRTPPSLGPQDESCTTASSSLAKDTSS
Sequence of human V1a receptor (P37288 whole entry): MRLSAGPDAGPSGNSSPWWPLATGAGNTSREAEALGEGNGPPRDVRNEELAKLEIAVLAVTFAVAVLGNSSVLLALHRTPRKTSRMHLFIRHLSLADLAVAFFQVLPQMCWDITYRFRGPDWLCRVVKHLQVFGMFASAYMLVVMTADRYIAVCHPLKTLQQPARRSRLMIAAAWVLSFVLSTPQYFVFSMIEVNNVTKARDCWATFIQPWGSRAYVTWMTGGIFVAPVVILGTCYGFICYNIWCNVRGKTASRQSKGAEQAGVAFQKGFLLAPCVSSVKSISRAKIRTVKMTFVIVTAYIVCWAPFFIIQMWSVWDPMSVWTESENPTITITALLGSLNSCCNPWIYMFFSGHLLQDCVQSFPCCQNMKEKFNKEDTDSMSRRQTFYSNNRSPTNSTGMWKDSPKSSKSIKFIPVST

IC50 [1] | IC50 [2] | ratio IC50 hV2/hV1a [2] | Compound
3050 nM | 41.5 nM | 73.5 | CC(C)(N)CNc1nc(Cn2nc(-c3ccc(Cl)cc3)n(C[C@H](O)C(F)(F)F)c2=O)nn1-c1ncccc1F [Example 92, 2-({5-[(2-Amino-2-methylpropyl)amino]-1-(3-fluoropyridin-2-yl)-1H-1,2,4-triazol-3-yl}methyl)-5-(4-chlorophenyl)-4-[(2S)-3,3,3-trifluoro-2-hydroxypropyl]-2,4-dihydro-3H-1,2,4-triazol-3-one]
17.5 nM | 0.58 nM | 30.2 | O=c1n(Cc2nc(N3CCNCC3)n(-c3ccccc3Cl)n2)nc(-c2ccc(Cl)cc2)n1C[C@H](O)C(F)(F)F [Example 72, 5-(4-Chlorophenyl)-2-{[1-(2-chlorophenyl)-5-(piperazin-1-yl)-1H-1,2,4-triazol-3-yl]methyl}-4-[(2S)-3,3,3-trifluoro-2-hydroxypropyl]-2,4-dihydro-3H-1,2,4-triazol-3-one]
0.86 nM | 0.43 nM | 2.0 | O=c1n(Cc2nc(NCCN3CCCCS3(=O)=O)n(-c3ccccc3Cl)n2)nc(-c2ccc(Cl)cc2)n1C[C@H](O)C(F)(F)F [Example 25, 5-(4-Chlorophenyl)-2-{[1-(2-chlorophenyl)-5-{[2-(1,1-dioxido-1,2-thiazinan-2-yl)ethyl]amino}-1H-1,2,4-triazol-3-yl]methyl}-4-[(2S)-3,3,3-trifluoro-2-hydroxypropyl]-2,4-dihydro-3H-1,2,4-triazol-3-one]
310 nM | 26.5 nM | 11.7 | O=c1n(Cc2nc(N3CCNC(C(F)(F)F)C3)n(CCC(F)(F)F)n2)nc(-c2ccc(Cl)cc2)n1C[C@H](O)C(F)(F)F (mixture of isomers) [Example 106, 5-(4-Chlorophenyl)-4-[(2S)-3,3,3-trifluoro-2-hydroxypropyl]-2-({5-[3-(trifluoromethyl)piperazin-1-yl]-1-(3,3,3-trifluoropropyl)-1H-1,2,4-triazol-3-yl}methyl)-2,4-dihydro-3H-1,2,4-triazol-3-one]
9.76 nM | 0.58 nM | 16.9 | COCCN(C)c1nc(Cn2nc(-c3ccc(Cl)cc3)n(C[C@H](O)C(F)(F)F)c2=O)nn1-c1ccccc1Cl [Example 85, 5-(4-Chlorophenyl)-2-({1-(2-chlorophenyl)-5-[(2-methoxyethyl)(methyl)amino]-1H-1,2,4-triazol-3-yl}methyl)-4-[(2S)-3,3,3-trifluoro-2-hydroxypropyl]-2,4-dihydro-3H-1,2,4-triazol-3-one]
2.45 nM | 1.2 nM | 2.0 | O=C1NCC(CNc2nc(Cn3nc(-c4ccc(Cl)cc4)n(C[C@H](O)C(F)(F)F)c3=O)nn2-c2ccccc2Cl)O1 (mixture of isomers) [Example 12, 5-(4-Chlorophenyl)-2-{[1-(2-chlorophenyl)-5-({[2-oxo-1,3-oxazolidin-5-yl]methyl}amino)-1H-1,2,4-triazol-3-yl]methyl}-4-[(2S)-3,3,3-trifluoro-2-hydroxypropyl]-2,4-dihydro-3H-1,2,4-triazol-3-one]
0.84 nM | 0.43 nM | 1.9 | CS(=O)(=O)C1CN(c2nc(Cn3nc(-c4ccc(Cl)cc4)n(C[C@H](O)C(F)(F)F)c3=O)nn2-c2ccccc2Cl)C1 [Example 2, 5-(4-Chlorophenyl)-2-({1-(2-chlorophenyl)-5-[3-(methylsulfonyl)azetidin-1-yl]-1H-1,2,4-triazol-3-yl}methyl)-4-[(2S)-3,3,3-trifluoro-2-hydroxypropyl]-2,4-dihydro-3H-1,2,4-triazol-3-one]
9.5 nM | 1.13 nM | 8.4 | O=c1n(Cc2nc(NCC3CS(=O)(=O)C3)n(-c3ccccc3Cl)n2)nc(-c2ccc(Cl)cc2)n1C[C@H](O)C(F)(F)F [Example 73, 5-(4-Chlorophenyl)-2-{[1-(2-chlorophenyl)-5-{[(1,1-dioxidothietan-3-yl)methyl]amino}-1H-1,2,4-triazol-3-yl]methyl}-4-[(2S)-3,3,3-trifluoro-2-hydroxypropyl]-2,4-dihydro-3H-1,2,4-triazol-3-one]
5.47 nM | 0.65 nM | 8.5 | O=C1NCCN1CCNc1nc(Cn2nc(-c3ccc(Cl)cc3)n(C[C@H](O)C(F)(F)F)c2=O)nn1-c1ccccc1Cl [Example 46, 5-(4-Chlorophenyl)-2-{[1-(2-chlorophenyl)-5-{[2-(2-oxoimidazolidin-1-yl)ethyl]amino}-1H-1,2,4-triazol-3-yl]methyl}-4-[(2S)-3,3,3-trifluoro-2-hydroxypropyl]-2,4-dihydro-3H-1,2,4-triazol-3-one]
3.45 nM | 0.39 nM | 8.9 | NC(CNc1nc(Cn2nc(-c3ccc(Cl)cc3)n(C[C@H](O)C(F)(F)F)c2=O)nn1-c1ccccc1Cl)C(F)(F)F (mixture of isomers) [Example 6, 2-{[5-{[2-Amino-3,3,3-trifluoropropyl]amino}-1-(2-chlorophenyl)-1H-1,2,4-triazol-3-yl]methyl}-5-(4-chlorophenyl)-4-[(2S)-3,3,3-trifluoro-2-hydroxypropyl]-2,4-dihydro-3H-1,2,4-triazol-3-one]
39 nM | 1.5 nM | 26.0 | O=c1n(Cc2nc(N3CCOC(C(F)(F)F)C3)n(-c3ccccc3Cl)n2)nc(-c2ccc(Cl)cc2)n1C[C@H](O)C(F)(F)F (mixture of isomers) [Example 77, 5-(4-Chlorophenyl)-2-({1-(2-chlorophenyl)-5-[2-(trifluoromethyl)morpholin-4-yl]-1H-1,2,4-triazol-3-yl}methyl)-4-[(2S)-3,3,3-trifluoro-2-hydroxypropyl]-2,4-dihydro-3H-1,2,4-triazol-3-one]
1.02 nM | 0.4 nM | 2.6 | CS(=O)(=O)NCCNc1nc(Cn2nc(-c3ccc(Cl)cc3)n(C[C@H](O)C(F)(F)F)c2=O)nn1-c1ccccc1Cl [Example 24, N-(2-{[1-(2-Chlorophenyl)-3-({3-(4-chlorophenyl)-5-oxo-4-[(2S)-3,3,3-trifluoro-2-hydroxypropyl]-4,5-dihydro-1H-1,2,4-triazol-1-yl}methyl)-1H-1,2,4-triazol-5-yl]amino}ethyl)methanesulfonamide]
1.9 nM | 0.5 nM | 3.8 | O=C1NCCC1Nc1nc(Cn2nc(-c3ccc(Cl)cc3)n(C[C@H](O)C(F)(F)F)c2=O)nn1-c1ccccc1Cl (single isomer, unassigned) [Example 17]
3800 nM | 330 nM | 11.5 | O=c1n(Cc2nc(N3CCS(=O)(=O)CC3)n(CCC(F)(F)F)n2)nc(-c2ccc(Cl)cc2)n1C[C@H](O)C(F)(F)F [Example 100, 5-(4-Chlorophenyl)-2-{[5-(1,1-dioxidothiomorpholin-4-yl)-1-(3,3,3-trifluoropropyl)-1H-1,2,4-triazol-3-yl]methyl}-4-[(2S)-3,3,3-trifluoro-2-hydroxypropyl]-2,4-dihydro-3H-1,2,4-triazol-3-one]
6.05 nM | 0.48 nM | 12.6 | O=C1NCC2(CN(c3nc(Cn4nc(-c5ccc(Cl)cc5)n(C[C@H](O)C(F)(F)F)c4=O)nn3-c3ccccc3Cl)C2)N1 [Example 35, 2-[1-(2-Chlorophenyl)-3-({3-(4-chlorophenyl)-5-oxo-4-[(2S)-3,3,3-trifluoro-2-hydroxypropyl]-4,5-dihydro-1H-1,2,4-triazol-1-yl}methyl)-1H-1,2,4-triazol-5-yl]-2,5,7-triazaspiro[3.4]octan-6-one]
385 nM | 9.4 nM | 41.0 | O=C1CC[C@@H](CNc2nc(Cn3nc(-c4ccc(Cl)cc4)n(C[C@H](O)C(F)(F)F)c3=O)nn2CCC(F)(F)F)N1 [Example 109, 5-(4-Chlorophenyl)-2-{[5-({[(2S)-5-oxopyrrolidin-2-yl]methyl}amino)-1-(3,3,3-trifluoropropyl)-1H-1,2,4-triazol-3-yl]methyl}-4-[(2S)-3,3,3-trifluoro-2-hydroxypropyl]-2,4-dihydro-3H-1,2,4-triazol-3-one]

Compound | IC50 [1] | IC50 [2] | ratio IC50 hV2/hV1a [2]
O=C1CCC(Nc2nc(Cn3nc(-c4ccc(Cl)cc4)n(C[C@H](O)C(F)(F)F)c3=O)nn2-c2ccccc2Cl)CN1 (mixture of isomers) [Example 60, 5-{[1-(2-Chlorophenyl)-3-({3-(4-chlorophenyl)-5-oxo-4-[(2S)-3,3,3-trifluoro-2-hydroxypropyl]-4,5-dihydro-1H-1,2,4-triazol-1-yl}methyl)-1H-1,2,4-triazol-5-yl]amino}piperidin-2-one] | 5.4 nM | 0.44 nM | 12.3
O=c1n(Cc2nc(NCC3(O)CC3)n(-c3ccccc3Cl)n2)nc(-c2ccc(Cl)cc2)n1C[C@H](O)C(F)(F)F [Example 54, 5-(4-Chlorophenyl)-2-{[1-(2-chlorophenyl)-5-{[(1-hydroxycyclopropyl)methyl]amino}-1H-1,2,4-triazol-3-yl]methyl}-4-[(2S)-3,3,3-trifluoro-2-hydroxypropyl]-2,4-dihydro-3H-1,2,4-triazol-3-one] | 1.56 nM | 0.54 nM | 2.9
NC(=O)[C@@H]1CCN(c2nc(Cn3nc(-c4ccc(Cl)cc4)n(C[C@H](O)C(F)(F)F)c3=O)nn2-c2ccccc2Cl)C1 [Example 56, (3R)-1-[1-(2-Chlorophenyl)-3-({3-(4-chlorophenyl)-5-oxo-4-[(2S)-3,3,3-trifluoro-2-hydroxypropyl]-4,5-dihydro-1H-1,2,4-triazol-1-yl}methyl)-1H-1,2,4-triazol-5-yl]pyrrolidine-3-carboxamide] | 5.65 nM | 0.73 nM | 7.7
